The target in one experiment is YFP-HA-βlac-DAT (Homo sapiens, UniProt Q01959). The experiment can be described thus: β-lactamase (βlac) surface expression assay. It counts as cell-based. The conditions noted are these: HEK293, read-out: EMax (%), WT DAT surface expression, HEK cells expressing YFP-HA-βlac-DAT, overnight (16 h) incubation, up to 100 μM, normalized to vehicle; assumed effective EMax. Here is the method:
The βlac surface expression assay was performed by following the method outlined in [Lam et al. (2013)] and [Beerepoot et al. (2015], [2016)]. The assay substrate nitrocefin (BD biosciences) was dissolved in dimethyl sulfoxide (DMSO) at a concentration of 10 mM and frozen at −80°C. Immediately before use, it was thawed and diluted to a final concentration of 100 μM in phosphate buffered saline (PBS). Cells (1 × 10^5/well) were seeded into a poly-D-lysine-coated 48-well plate and incubated for 24 h, prior to drug treatment. Drugs were added to individual wells at varying concentrations and incubated for 16 h. Subsequently, the media was aspirated, and the cells were washed twice with PBS. After removal of the final PBS wash, 200 μL of the nitrocefin solution was added to each well and the absorbance was immediately read. The EPOCH microplate spectrophotometer (BioTek) was used to measure absorbance (486 nm) for each well every minute for 30 min. The rate of reaction (slope of the curve) was used as the readout for the assay ([Beerepoot et al., 2015]). To determine suitable concentration ranges for each drug, they were dissolved in PBS or DMSO at the highest concentration possible. From here, the solutions were serial diluted 1/10 to yield 8 different concentrations. βLAC cells were then treated with the varying drug concentrations and cell viability was recorded using light microscopy. For additional measure, nitrocefin was added and the absorbance was read. For certain cases, Trypan Blue was used to quantitatively differentiate increased cell death from reduced cell division. […] Five or six doses were generally used in subsequent dosing experiments, starting at the highest non-toxic concentration.
Data analysis was performed using GraphPad Prism (GraphPad Software, La Jolla, CA). Linear regression analysis was performed on βLAC time points to determine the slope, thus the rate of reaction, for comparison. Furthermore, the slope was also used to determine the degree of dopamine uptake in the dopamine uptake assays. Non-linear regression, fitting to the log(agonist) vs. response and log(inhibitor) vs. response model curve, was used to determine dose-response relationships of surface expression and uptake assays, respectively. One-way ANOVA with Dunnett’s post hoc-test was used for the β-lactamase assay and one-way ANOVA with Bonferroni correction was used for western blot analysis.
Among these were RTI-1, RTI-2, RTI-5, RTI-6, RTI-11, RTI-20, and PAL-1007. […] The EMax values of all the analyzed drugs are included in Figure 1.
The pharmacological chaperone ability of the 15 ibogaine and tryptamine analogs, shown in Figure 3, were measured using the βlac surface expression assay. HEK cells expressing YFP-HA-βlac-DAT were incubated overnight with these compounds at concentrations varying by log and half-log dilutions, starting at 100 μM final concentration. […] Furthermore, it was important to determine whether the β-carboline analogs could also elicit a chaperone effect because they are not classified as DAT ligands ([Cao et al., 2007]). […] Removing the nitrogen from the ring reduced efficacy as observed with frovatriptan (103 ± 1.4%). […] Evodiamine (54 ± 1.7%) had no chaperone ability and caused a substantial reduction in the surface expression of DAT. Dose-response curves were generated to assess the pharmacological chaperone potencies of select compounds (Figure 4).

The target of another experiment is T1, K590A DAT (Homo sapiens, UniProt Q01959, K590A).
T1 construct: expressed in transfected cells; host or cells: HEK293
T1 sequence (Q01959 whole entry K590A): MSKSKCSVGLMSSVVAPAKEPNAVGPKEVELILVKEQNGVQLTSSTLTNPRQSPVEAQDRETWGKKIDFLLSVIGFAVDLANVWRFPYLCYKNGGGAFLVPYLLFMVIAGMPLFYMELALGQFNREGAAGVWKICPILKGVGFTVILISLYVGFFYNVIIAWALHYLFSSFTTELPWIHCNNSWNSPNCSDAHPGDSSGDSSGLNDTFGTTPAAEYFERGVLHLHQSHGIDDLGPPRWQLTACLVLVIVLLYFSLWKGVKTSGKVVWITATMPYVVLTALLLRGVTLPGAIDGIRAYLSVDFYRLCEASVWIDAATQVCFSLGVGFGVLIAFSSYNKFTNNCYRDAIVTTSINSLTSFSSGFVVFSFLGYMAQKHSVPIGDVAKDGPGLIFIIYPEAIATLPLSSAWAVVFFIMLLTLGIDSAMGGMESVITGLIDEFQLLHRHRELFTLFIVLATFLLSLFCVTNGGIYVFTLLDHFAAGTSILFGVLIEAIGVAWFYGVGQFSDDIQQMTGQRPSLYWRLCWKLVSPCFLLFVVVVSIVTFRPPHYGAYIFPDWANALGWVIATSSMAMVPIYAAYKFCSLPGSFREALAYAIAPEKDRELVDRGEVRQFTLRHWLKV
As to the kind of experiment: Western blot of mature K590A DAT protein levels. The format is cell-based. The conditions noted are these: overnight treatment. The method, then: Cells (1 × 10^6 cells/well) were seeded onto a 6-well plate and incubated for 24 h. Cells were then treated with drugs and incubated for 16 h. After the incubation period, cells were lysed in RIPA buffer supplemented with protease inhibitors (working concentrations: pepstatin A, 5 μg/mL; leupeptin, 10 μg/mL; aprotinin, 1.5 μg/mL; benzamidine, 0.1 μg/mL; PMSF, 0.1 mM) on ice. At 4°C, cell lysates were gently shaken for 15 min followed by centrifugation at 15,000 rpm for 15 min to pellet debris. The Pierce BCA protein assay kit (Thermo Fisher Scientific, Canada) was used to determine the protein concentration of the supernatant. To reach a concentration of 40 μg of protein per 20 μL, samples were diluted in fresh RIPA buffer with 12.5% Laemmli sample buffer and 2.5% β-Mercaptoethanol prior to being heated to 55°C. The protein was then loaded on a 7.5 or 10% SDS-PAGE gel and run at 100 V for approximately an hour or until the dye front reached the bottom of the gel. Next, protein was transferred to a PVDF membrane at 22 V for 16 h or 100 V for 1 h. Blots were blocked with LI-COR blocking buffer for 1 h and incubated for 1 h at room temperature with rabbit anti-GFP (1:1,000 dilution; Life Technologies, cat#A11122). After washing three times with TBST, blots were incubated with goat anti-rabbit IRDye-680RD secondary antibody (1:15,000; LI-COR, cat#926-68071). As a loading control, blots were incubated with mouse anti-GAPDH (1:5,000, Sigma-Aldrich, Canada, cat#G8795) prior to secondary antibody goat anti-mouse IRDye-800GR (1:5,000 dilution, Rockland, Limerick, PA, cat#610-132-007). All antibodies were diluted in LI-COR blocking buffer. Additionally, REVERT total protein staining (LI-COR, Lincoln, NE) was used as a loading control. […] Mature, fully glycosylated DAT (mDAT = 110 kDa) and immature, ER-resident DAT (iDAT = 75 kDa) were visualized using the Odyssey Imaging System (LI-COR, Lincoln, NE) and Image Studio Version 5.2 software (Supplementary Figure 1).
We next assessed whether drugs that increase DAT surface expression also increase total protein levels of DAT. Cells expressing YFP-HA-DAT were incubated with select test compounds and DAT protein levels were examined by western blot. The effects of the compounds were assessed on WT DAT and K590A DAT. The K590A mutant is a well-characterized ER-retained, trafficking-deficient DAT mutant ([Miranda et al., 2004]) that can be rescued by pharmacological chaperones ([Beerepoot et al., 2016]).
FIGURE 5 Effect of noribogaine, tetrahydroharmine, PAL-594, bicifadine, and RTI-20 on WT and K590A DAT expression. […] (B) Quantification of WT mDAT protein levels. […] (D) Quantification of K590A mDAT protein levels. […]
In general terms: In western blotting, separated proteins are transferred to a membrane and probed.

Chain of YFP-HA-βlac-DAT (Q01959 1-171 limits assumed): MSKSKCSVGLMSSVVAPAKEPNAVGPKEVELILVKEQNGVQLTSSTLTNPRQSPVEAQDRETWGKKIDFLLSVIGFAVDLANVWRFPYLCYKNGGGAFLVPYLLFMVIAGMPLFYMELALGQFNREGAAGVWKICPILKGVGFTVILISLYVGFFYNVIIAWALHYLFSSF
Chain of YFP-HA-βlac-DAT (Q01959 237-620 limits assumed): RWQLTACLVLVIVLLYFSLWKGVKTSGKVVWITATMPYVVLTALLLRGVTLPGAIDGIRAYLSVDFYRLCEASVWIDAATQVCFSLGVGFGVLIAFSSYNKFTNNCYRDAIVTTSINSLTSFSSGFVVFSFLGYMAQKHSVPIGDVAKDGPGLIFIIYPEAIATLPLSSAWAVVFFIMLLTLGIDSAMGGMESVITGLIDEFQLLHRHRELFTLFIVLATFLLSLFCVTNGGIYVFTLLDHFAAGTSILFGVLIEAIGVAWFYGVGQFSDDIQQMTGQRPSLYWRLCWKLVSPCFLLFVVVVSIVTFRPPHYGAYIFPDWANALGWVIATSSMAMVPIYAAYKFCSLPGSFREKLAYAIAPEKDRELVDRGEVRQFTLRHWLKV

One may read the Emax as the greatest response seen or fitted, relative to the assay's reference. For `CCC1CC2CC3c4[nH]c5ccc(O)cc5c4CCN(C2)C13` (centres unmarked) [Noribogaine, reference compound], the Emax at YFP-HA-βlac-DAT was 251 ± 17.8%. The “K590A DAT (mDAT) protein levels” value at K590A DAT was “statistically significant effect”.

Values taken from PMC9124866, “Structure-Activity Relationships of Dopamine Transporter Pharmacological Chaperones” (Frontiers in Cellular Neuroscience, 2022).
